Data reported in the NIST ThermoML archive (doi:10.1016/j.jct.2013.12.033).
± gives the expanded uncertainty stated by the source.

Settings: Liquid, Closed cell (Static) method

SMILES	vapor or sublimation pressure (273.15 K)	vapor or sublimation pressure (283.15 K)	vapor or sublimation pressure (293.15 K)	vapor or sublimation pressure (303.15 K)	vapor or sublimation pressure (313.15 K)	vapor or sublimation pressure (323.15 K)	vapor or sublimation pressure (333.15 K)	vapor or sublimation pressure (343.15 K)	vapor or sublimation pressure (353.15 K)	vapor or sublimation pressure (363.15 K)
c1ccncc1 [pyridine]	0.5993 ± 0.037 kPa	1.136 ± 0.071 kPa	2.049 ± 0.12 kPa	3.535 ± 0.21 kPa	5.863 ± 0.35 kPa	9.383 ± 0.56 kPa	14.55 ± 0.88 kPa	21.92 ± 1.3 kPa	32.17 ± 1.9 kPa	46.13 ± 2.8 kPa
c1ccsc1 [thiophene]	2.778 ± 0.17 kPa	4.893 ± 0.29 kPa	8.217 ± 0.49 kPa	13.23 ± 0.8 kPa	20.52 ± 1.2 kPa	30.8 ± 1.9 kPa	44.88 ± 2.7 kPa	63.71 ± 3.8 kPa	88.33 ± 5.3 kPa	119.9 ± 7.2 kPa
